Assays:
[1] = system: harmful plants such as Avena fatua, Echinochloa crus galli, Lolium multiflorum, Setaria viridis, Veronica persica, Viola tricolor and Alopecurus myosuroides; experiment: Post-emergence herbicidal effect (greenhouse pot test, visual scoring); assay type: in vivo; conditions: post-emergence method, application rate of 0.32 kg or less of active substance per hectare, scored visually after about 3 weeks
Method: 2. Post-emergence Herbicidal Effect and Crop Plant Compatibility
Seeds of monocotyledonous and dicotyledonous weeds and crop plants are placed in sandy loam soil in wood-fiber pots, covered with soil, and cultivated in a greenhouse under good growth conditions. 2 to 3 weeks after sowing, the test plants are treated at the one-leaf stage. The compounds (I) according to the invention, formulated as wettable powders (WP), are then sprayed onto the green parts of the plants as an aqueous suspension or emulsion at a water application rate of 600 I/ha (converted), with addition of 0.2% wetting agent. The test plants are allowed to stand in a greenhouse for about 3 weeks under optimum growth conditions, and the effect of the preparations is then scored visually by comparison with untreated controls (herbicidal activity in percent (%): 100% activity=the plants have died, 0% activity=like control plants).

[2] = system: harmful plants such as Alopecurus myosuroides, Echinochloa crus galli, Setaria viridis and Veronica persica; experiment: Pre-emergence herbicidal effect (greenhouse pot test, visual scoring); assay type: in vivo; conditions: pre-emergence method, application rate of 0.32 kg of active substance per hectare, scored visually after about 3 weeks
From the text: 1. Pre-emergence Herbicidal Effect and Crop Plant Compatibility
Seeds of monocotyledonous or dicotyledonous weeds or crop plants are placed in sandy loam soil in wood-fiber pots and covered with soil. The compounds (I) according to the invention, formulated in the form of wettable powders (WP), are then applied to the surface of the soil cover in the form of an aqueous suspension or emulsion at a water application rate of 600 I/ha (converted), with addition of 0.2% wetting agent.
Following the treatment, the pots are placed in the greenhouse and kept under good growth conditions for the test plants. After about 3 weeks, the activity of the preparations is scored visually in comparison to untreated controls (herbicidal activity in percent (%): 100% activity=the plants have died, 0% activity=like control plants).

| Compound | herbicidal activity [1] | herbicidal activity [2] |
| --- | --- | --- |
| COC(=O)Cc1c(C)nn(-c2cncnc2)c1-c1ccccn1 [Compound 2-116, Methyl[3-methyl-5-(pyridin-2-yl)-1-(pyrimidin-5-yl)-1H-pyrazol-4-yl]acetate] | good herbicidal activity | good herbicidal activity |
| COC(=O)Cc1c(C)nn(-c2cncnc2)c1-c1ccc(C)cc1 [Compound 2-16] | good herbicidal activity | good herbicidal activity |
| Cc1nn(-c2cncnc2)c(-c2ccc(Br)cn2)c1CC(=O)O [Compound 1-119] | good herbicidal activity | good herbicidal activity |
| CC#CCOC(=O)Cc1c(C)nn(-c2cncnc2)c1-c1ccc(Br)cn1 [Compound 3-176] | good herbicidal activity | good herbicidal activity |
| Cc1nn(-c2cncnc2)c(-c2cc3ccccc3cn2)c1CC(=O)O [Compound 1-236] | good herbicidal activity | good herbicidal activity |
| COc1ccnc(-c2c(CC(=O)O)c(C)nn2-c2cncnc2)c1 [Compound 1-154] | good herbicidal activity | good herbicidal activity |
| C=CCc1ccc(-c2c(CC(=O)OC)c(C)nn2-c2cncnc2)nc1 [Compound 2-249] | good herbicidal activity | good herbicidal activity |
| Cc1cc(C)nc(-c2c(CC(=O)O)c(C)nn2-c2cncnc2)c1 [Compound 1-210] | good herbicidal activity | good herbicidal activity |
| Cc1nn(-c2cncnc2)c(-c2ccc(Cl)cn2)c1CC(=O)OCC(F)F [Compound 3-353] | good herbicidal activity | good herbicidal activity |
| CCOC(=O)Cc1c(C)nn(-c2cncnc2)c1-c1cc(C)ccn1 [Compound 3-36] |  | good herbicidal activity |
| Cc1nn(-c2cncnc2)c(-c2ccc(Cl)cn2)c1CC(=O)OCC1CC1 [Compound 3-135] | good herbicidal activity | good herbicidal activity |
| C#CCOC(=O)Cc1c(C)nn(-c2cncnc2)c1-c1ccc(Cl)cn1 [Compound 3-112] | good herbicidal activity | good herbicidal activity |
| COC(=O)Cc1c(C)nn(-c2cncnc2)c1-c1cc(C)ccn1 [Compound 2-148] | good herbicidal activity | good herbicidal activity |
| COC(=O)Cc1c(C)nn(-c2cncnc2)c1-c1ccc(F)cc1 [Compound 2-132] | good herbicidal activity | good herbicidal activity |
| COC(=O)Cc1c(C)nn(-c2cncnc2)c1-c1ccc(C)cn1 [Compound 2-124] | good herbicidal activity | good herbicidal activity |
| COC(=O)Cc1c(C)nn(-c2cncnc2)c1-c1ccccc1 [Compound 2-2] | good herbicidal activity | good herbicidal activity |
| CCOC(=O)Cc1c(C)nn(-c2cncnc2)c1-c1ccc(Br)cn1 [Compound 3-26] | good herbicidal activity | good herbicidal activity |
| COC(=O)Cc1c(C)nn(-c2cncnc2)c1-c1ccc(Br)cn1 [Compound 2-120] | good herbicidal activity | good herbicidal activity |
| COC(=O)Cc1c(C)nn(-c2cncnc2)c1-c1cc(C)cs1 [Compound 2-64] | good herbicidal activity | good herbicidal activity |
| COC(=O)Cc1c(C)nn(-c2cncnc2)c1-c1ccc(Cl)s1 [Compound 2-65] | good herbicidal activity | good herbicidal activity |

| Compound | herbicidal activity [1] | herbicidal activity [2] |
| --- | --- | --- |
| COC(=O)Cc1c(C)nn(-c2cncnc2)c1-c1cc2ccccc2cn1 [Compound 2-241] | good herbicidal activity | good herbicidal activity |
| COC(=O)Cc1c(C)nn(-c2cncnc2)c1-c1ccc(Cl)cc1 [Compound 2-28] | good herbicidal activity | good herbicidal activity |
| COC(=O)Cc1c(C)nn(-c2cncnc2)c1-c1ccc(Cl)cn1 [Compound 2-117] | good herbicidal activity | good herbicidal activity |
| Cc1nn(-c2cncnc2)c(-c2ccc(Cl)cc2)c1CC(=O)OCC1CC1 [Compound 3-121] | good herbicidal activity | good herbicidal activity |
| Cc1nn(-c2cncnc2)c(-c2ccc(Cl)cc2)c1CC(=O)O [Compound 1-28] | good herbicidal activity | good herbicidal activity |
| COC(=O)Cc1c(C)nn(-c2cncnc2)c1-c1cnc(C)cn1 [Compound 2-215] | good herbicidal activity | good herbicidal activity |
| CC#CCOC(=O)Cc1c(C)nn(-c2cncnc2)c1-c1ccc(Cl)cc1 [Compound 3-161] | good herbicidal activity | good herbicidal activity |
| Cc1nn(-c2cncnc2)c(-c2ccc(Cl)cn2)c1CC(=O)O [Compound 1-116] | good herbicidal activity | good herbicidal activity |
| COC(=O)Cc1c(C)nn(-c2cncnc2)c1-c1nc2ccccc2s1 [Compound 2-217] | good herbicidal activity | good herbicidal activity |
| CCOC(=O)Cc1c(C)nn(-c2cncnc2)c1-c1ccc(Cl)cn1 [Compound 3-25] | good herbicidal activity | good herbicidal activity |
| Cc1nn(-c2cncnc2)c(-c2ccc(Br)cn2)c1CC(=O)OCC1CC1 [Compound 3-136] | good herbicidal activity |  |
| COC(=O)Cc1c(C)nn(-c2cncnc2)c1-c1ccc(Br)cc1 [Compound 2-240] | good herbicidal activity | good herbicidal activity |
| COC(=O)Cc1c(C)nn(-c2cncnc2)c1-c1ccc(Cl)c(C)c1 [Compound 2-135] | good herbicidal activity | good herbicidal activity |
| COC(=O)Cc1c(C)nn(-c2cncnc2)c1-c1cc(OC)ccn1 [Compound 2-155] | good herbicidal activity | good herbicidal activity |
| CCOC(=O)Cc1c(C)nn(-c2cncnc2)c1-c1ccc(Cl)cc1 [Compound 3-4] | good herbicidal activity | good herbicidal activity |
| COC(=O)Cc1c(C)nn(-c2cncnc2)c1-c1cc(C)cc(C)c1 [Compound 2-47] | good herbicidal activity | good herbicidal activity |
| COC(=O)Cc1c(C)nn(-c2cncnc2)c1-c1ccc([N+](=O)[O-])cc1 [Compound 2-243] | good herbicidal activity | good herbicidal activity |
| COC(=O)Cc1c(C)nn(-c2cncnc2)c1-c1ncccn1 [Compound 2-224] | good herbicidal activity | good herbicidal activity |
| Cc1cnc(-c2c(CC(=O)O)c(C)nn2-c2cncnc2)cn1 [Compound 1-214] | good herbicidal activity | good herbicidal activity |

Reference: US8298994B2, “Substituted 1-(diazinyl)pyrazol-4-ylacetic acids, processes for their preparation and their use as herbicides and plant growth regulators” (Bayer Cropscience AG, priority 2008, dated 2012)
